These results are taken from paper PMC11174122 (Molecules, 2024).

For one assay, the system named is Bel-7402. The assay can be described thus: MTT cytotoxic activity assay, Bel-7402. The class given is cell-based. Conditions: Homo sapiens, 48 h. The procedure:
(§1) MCF-7, Hela, and HUCEC were cultured in DMEM (Beijing Solarbio) containing 10% FBS, 100 U/mL penicillin, and […] at 37 °C and 5% CO2. Bel-7402, A549, PC-3M were cultured in RPMI-1640 (Beijing Solarbio) media supplemented with 10% FBS (Wuhan Punuosai Life Science and Technology Co., Ltd., Wuhan, China), 100 U/mL penicillin, and […] at 37 °C and 5% CO2. MTT (Beijing Solarbio) was prepared with PBS at a concentration of 5 mg/mL. All tested drugs were prepared in a solution with a concentration of 20 mM, with dimethyl sulfoxide as the solvent.
(§2) The cells were inoculated into 96-well plates at a density of 5 × 10^3 cells/well. When the cell fusion reached 70–80%, the drug was treated for 48 h. Subsequently, 20 μL MTT was added to each well and incubated at 37 °C with 5% CO2 for 4 h. After that, the medium was discarded and 150 μL DMSO was added to each well. The absorbance was measured at 490 nm with an enzymoleter.
Background: Tetrazolium dyes change colour on reduction, which living cells bring about.

The next assay deals with A549. Kind of assay: MTT cytotoxic activity assay, A549. The class given is cell-based. The following applies: Homo sapiens, 48 h. The procedure:
as §1, §2

The next assay deals with Hela. The assay can be described thus: MTT cytotoxic activity assay, Hela. Conditions: Homo sapiens, HeLa; MTT, 48 h. The format is cell-based, human. The procedure: as §1, §2
Another assay has as its system MCF-7. Kind of assay: MTT cytotoxic activity assay, MCF-7. The format is cell-based. Conditions: Homo sapiens, MCF7, 48 h. The procedure:
as §1, §2

In the next assay the test system is PC-3M. The assay can be described thus: MTT cytotoxic activity assay, PC-3M. The format is cell-based. Conditions: Homo sapiens. Here is the method:
as §1, §2

pIC50: −log10 of the molar value. Where two headings read alike, the source gives them in different places. Where only a bound is given, the exact number is not on record here.

For orientation: pIC50 means the IC50 on a negative log10 scale, so that one unit is a factor of ten.

Turning to `CC(C)(C)OC(=O)N1CCCC1C(=O)Oc1ccc(/C=C/C(=O)c2ccc(OC(=O)[C@@H]3CCCN3C(=O)OC(C)(C)C)cc2O)cc1` (stereo partly drawn) [Compound 4, (E)-2-(4-(3-(4-(((tert-butoxycarbonyl)prolyl)oxy)-2-hydroxyphenyl)-3-oxoprop-1-en-1-yl)phenyl) 1-(tert-butyl) pyrrolidine-1,2-dicarboxylate], the pIC50 in the assay with Bel-7402 is below 3.70; in the assay with A549, below 3.70; in the assay with Hela, below 3.70; in the assay on MCF-7 it was below 3.70; in the assay on PC-3M (read-out: IC50 PC-3M, 48 h) it was below 3.70.
Turning to `CC(C)(C)OC(=O)N[C@@H](Cc1ccccc1)C(=O)Oc1ccc(C(=O)/C=C/c2ccc(OC(=O)[C@@H](Cc3ccccc3)NC(=O)OC(C)(C)C)cc2)c(O)c1` [Compound 20, 4-((E)-3-(4-(((tert-butoxycarbonyl)-D-phenylalanyl)oxy)phenyl)acryloyl)-3-hydroxyphenyl (tert-butoxycarbonyl)-L-phenylalaninate], the pIC50 with Bel-7402 is below 3.70; in the assay on A549, below 3.70; in the assay with Hela, below 3.70; in the assay on MCF-7, below 3.70; in the assay with PC-3M (read-out: IC50 PC-3M, 48 h) it was below 3.70.
Consider `C[C@H](NC(=O)OC(C)(C)C)C(=O)Oc1ccc(C(=O)/C=C/c2ccc(OC(=O)[C@@H](C)NC(=O)OC(C)(C)C)cc2)c(O)c1` [Compound 10, 4-((E)-3-(4-(((tert-butoxycarbonyl)-D-alanyl)oxy)phenyl)acryloyl)-3-hydroxyphenyl (tert-butoxycarbonyl)-L-alaninate], for which the pIC50 in the assay on Bel-7402 was below 3.70; with A549 it was below 3.70; in the assay with Hela, below 3.70; in the assay with MCF-7, below 3.70; in the assay with PC-3M (read-out: IC50 PC-3M, 48 h), below 3.70.
Regarding `CC(C)(C)OC(=O)N[C@@H](CCc1ccccc1)C(=O)Oc1ccc(/C=C/C(=O)c2ccc(O)cc2O)cc1` [Compound 13, (E)-4-(3-(2,4-dihydroxyphenyl)-3-oxoprop-1-en-1-yl)phenyl(S)-2-((tert-butoxycarbonyl)amino)-4-phenylbutanoate], the negative-log IC50 (pIC50) in the assay with Bel-7402 is 4.45; with A549, 4.31; with Hela it was 4.53; with MCF-7, 4.22; in the assay on PC-3M (read-out: IC50 PC-3M, 48 h) it was 4.43.
The corresponding values for `CC(NC(=O)OC(C)(C)C)C(=O)Oc1ccc(C=CC(=O)c2ccc(O)cc2O)cc1` [Compound 11, (E)-4-(3-(2,4-dihydroxyphenyl)-3-oxoprop-1-en-1-yl)phenyl(tert-butoxycarbonyl)-D-alaninate] are 4.06, 4.00, 4.00, 3.80 and 3.91.
With `CN(CC(=O)Oc1ccc(/C=C/C(=O)c2ccc(OC(=O)CN(C)C(=O)OC(C)(C)C)cc2O)cc1)C(=O)OC(C)(C)C` [Compound 5, (E)-4-(3-(4-((N-(tert-butoxycarbonyl)-N-methylglycyl)oxy)-2-hydroxyphenyl)-3-oxoprop-1-en-1-yl)phenyl N-(tert-butoxycarbonyl)-N-methylglycinate], the pIC50 in the assay with Bel-7402 was below 3.70; in the assay with A549, below 3.70; in the assay on Hela, below 3.70; with MCF-7, below 3.70; with PC-3M (read-out: IC50 PC-3M, 48 h), below 3.70.
As for `CCC(C)CC(NC(=O)OC(C)(C)C)C(=O)Oc1ccc(/C=C/C(=O)c2ccc(OC(=O)C(CC(C)CC)NC(=O)OC(C)(C)C)cc2O)cc1` (stereo not drawn) [Compound 2, (E)-4-(3-(4-((2-((tert-butoxycarbonyl)amino)-4-methylhexanoyl)oxy)-2-hydroxyphenyl)-3-oxoprop-1-en-1-yl)phenyl 2-((tert-butoxycarbonyl)amino)-4-methylhexanoate], the pIC50 was below 3.70 in the assay with Bel-7402; below 3.70 in the assay with A549; below 3.70 in the assay with Hela; below 3.70 with MCF-7; below 3.70 with PC-3M (read-out: IC50 PC-3M, 48 h).
Regarding `CC(C)(C)OC(=O)N[C@@H](Cc1ccccc1Br)C(=O)Oc1ccc(C(=O)/C=C/c2ccc(OC(=O)[C@@H](Cc3ccccc3Br)NC(=O)OC(C)(C)C)cc2)c(O)c1` [Compound 14, 4-((E)-3-(4-(((S)-3-(2-bromophenyl)-2-((tert-butoxycarbonyl)amino)propanoyl)oxy)-2-hydroxyphenyl)-3-oxoprop-1-en-1-yl)phenyl(R)-3-(2-bromophenyl)-2-((tert-butoxycarbonyl)amino)propanoate], the pIC50 with Bel-7402 was below 3.70; in the assay on A549, below 3.70; in the assay on Hela, below 3.70; in the assay with MCF-7, below 3.70; with PC-3M (read-out: IC50 PC-3M, 48 h) it was below 3.70.
Take `Cc1ccc(C[C@H](NC(=O)OC(C)(C)C)C(=O)Oc2ccc(C(=O)/C=C/c3ccc(OC(=O)[C@@H](Cc4ccc(C)cc4)NC(=O)OC(C)(C)C)cc3)c(O)c2)cc1` [Compound 22, 4-((E)-3-(4-(((S)-2-((tert-butoxycarbonyl)amino)-3-(p-tolyl)propanoyl)oxy)-2-hydroxyphenyl)-3-oxoprop-1-en-1-yl)phenyl(R)-2-((tert-butoxycarbonyl)amino)-3-(p-tolyl)propanoate]: the pIC50 in the assay on Bel-7402 was below 3.70; in the assay on A549, below 3.70; in the assay with Hela it was below 3.70; in the assay with MCF-7, below 3.70; in the assay on PC-3M (read-out: IC50 PC-3M, 48 h) it was below 3.70.
On to `CC(C)(C)OC(=O)NC(Cc1ccccc1)C(=O)Oc1ccc(/C=C/C(=O)c2ccc(O)cc2O)cc1` [Compound 21, (E)-4-(3-(2,4-dihydroxyphenyl)-3-oxoprop-1-en-1-yl)phenyl(tert-butoxycarbonyl)-D-phenylalaninate], for which the negative-log IC50 (pIC50) in the assay on Bel-7402 is 4.34; with A549, 4.22; with Hela, 4.18; with MCF-7, 4.12; with PC-3M (read-out: IC50 PC-3M, 48 h) it was 4.06.
The like results for `CC(C)(C)OC(=O)NC(C(=O)Oc1ccc(/C=C/C(=O)c2ccc(OC(=O)C(NC(=O)OC(C)(C)C)C3CCCCC3)cc2O)cc1)C1CCCCC1` [Compound 8, 4-((E)-3-(4-((R)-2-((tert-butoxycarbonyl)amino)-2-cyclohexylacetoxy)-2-hydroxyphenyl)-3-oxoprop-1-en-1-yl)phenyl(S)-2-((tert-butoxycarbonyl)amino)-2-cyclohexylacetate] were, in that order, below 3.70, below 3.70, below 3.70, below 3.70 and below 3.70.
The like results for `CC(C)(C)OC(=O)NC(CCc1ccccc1)C(=O)Oc1ccc(C(=O)/C=C/c2ccc(OC(=O)[C@H](CCc3ccccc3)NC(=O)OC(C)(C)C)cc2)c(O)c1` (stereo partly drawn) [Compound 12, 4-((E)-3-(4-((2-((tert-butoxycarbonyl)amino)-4-phenylbutanoyl)oxy)-2-hydroxyphenyl)-3-oxoprop-1-en-1-yl)phenyl(2S)-2-((tert-butoxycarbonyl)amino)-4-phenylbutanoate] were, in that order, below 3.70, below 3.70, below 3.70, below 3.70 and below 3.70.
Take `CC(C)(C)OC(=O)NC(C(=O)Oc1ccc(/C=C/C(=O)c2ccc(O)cc2O)cc1)C1CCCC1` [Compound 7, (E)-4-(3-(2,4-dihydroxyphenyl)-3-oxoprop-1-en-1-yl)phenyl(R)-2-((tert-butoxycarbonyl)amino)-2-cyclopentylacetate]: the negative-log IC50 (pIC50) in the assay with Bel-7402 is 4.55; in the assay with A549 it was 4.56; in the assay on Hela, 4.54; in the assay on MCF-7, 4.53; in the assay with PC-3M (read-out: IC50 PC-3M, 48 h), 4.48.
`CC(C)[C@H](NC(=O)OC(C)(C)C)C(=O)Oc1ccc(/C=C/C(=O)c2ccc(OC(=O)[C@@H](NC(=O)OC(C)(C)C)C(C)C)cc2O)cc1` [Compound 3, (E)-4-(3-(4-(((tert-butoxycarbonyl)valyl)oxy)-2-hydroxyphenyl)-3-oxoprop-1-en-1-yl)phenyl (tert-butoxycarbonyl)valinate]: the negative logarithm of the IC50 (pIC50) in the assay with Bel-7402 is below 3.70; with A549 it was below 3.70; in the assay with Hela, below 3.70; in the assay on MCF-7 it was below 3.70; in the assay on PC-3M (read-out: IC50 PC-3M, 48 h), below 3.70.
Turning to `CC(C)(C)OC(=O)NC(C(=O)Oc1ccc(/C=C/C(=O)c2ccc(O)cc2O)cc1)c1ccccc1` [Compound 19, (E)-4-(3-(2,4-dihydroxyphenyl)-3-oxoprop-1-en-1-yl)phenyl(R)-2-((tert-butoxycarbonyl)amino)-2-phenylacetate], the negative-log IC50 (pIC50) in the assay with Bel-7402 is 4.17; in the assay with A549, 4.03; in the assay on Hela it was 4.13; in the assay on MCF-7 it was 3.82; with PC-3M (read-out: IC50 PC-3M, 48 h) it was 3.96.
Take `CC(C)(C)OC(=O)N[C@H](Cc1ccccc1Cl)C(=O)Oc1ccc(/C=C/C(=O)c2ccc(O)cc2O)cc1` [Compound 17, (E)-4-(3-(2,4-dihydroxyphenyl)-3-oxoprop-1-en-1-yl)phenyl(R)-2-((tert-butoxycarbonyl)amino)-3-(2-chlorophenyl)propanoate]: the pIC50 with Bel-7402 is 4.48; in the assay with A549, 4.39; in the assay with Hela, 4.52; in the assay on MCF-7, 4.22; in the assay on PC-3M (read-out: IC50 PC-3M (text), 48 h), 4.43; with PC-3M (read-out: IC50 PC-3M, 48 h), 4.42.
